Patent publication US10174077B2, “Method of inhibiting activity of cell surface fibroblast activation protein alpha” (The Board of Regents of the University of Oklahoma, priority 2006, dated 2019)
Read-outs that look alike come from different tables or passages of the source. Where a SMILES comes first, the peptide text is derived from it. [ ]: non-standard residue; d: D form. Pip = O=C(O)[C@@H]1CCCCN1; AEEA = NCCOCCOCC(=O)O

Columns and labels:
[1] = molecular target: T1, APCE (Homo sapiens, UniProt Q12884); test: APCE enzyme assay with fluorescent AMC substrates, competitive inhibition constants; assay type: biochemical; settings: for Selectivity, Ki (DPPIV)/Ki (APCE/FAP): ratio of Ki values
T1 construct: APCE lacks the first 23 amino terminal residues of FAP; tissue Sylvan Goldman Blood Institute (source of the plasma); host or cells: human plasma
T1 sequence (Q12884 24-760 limits assumed): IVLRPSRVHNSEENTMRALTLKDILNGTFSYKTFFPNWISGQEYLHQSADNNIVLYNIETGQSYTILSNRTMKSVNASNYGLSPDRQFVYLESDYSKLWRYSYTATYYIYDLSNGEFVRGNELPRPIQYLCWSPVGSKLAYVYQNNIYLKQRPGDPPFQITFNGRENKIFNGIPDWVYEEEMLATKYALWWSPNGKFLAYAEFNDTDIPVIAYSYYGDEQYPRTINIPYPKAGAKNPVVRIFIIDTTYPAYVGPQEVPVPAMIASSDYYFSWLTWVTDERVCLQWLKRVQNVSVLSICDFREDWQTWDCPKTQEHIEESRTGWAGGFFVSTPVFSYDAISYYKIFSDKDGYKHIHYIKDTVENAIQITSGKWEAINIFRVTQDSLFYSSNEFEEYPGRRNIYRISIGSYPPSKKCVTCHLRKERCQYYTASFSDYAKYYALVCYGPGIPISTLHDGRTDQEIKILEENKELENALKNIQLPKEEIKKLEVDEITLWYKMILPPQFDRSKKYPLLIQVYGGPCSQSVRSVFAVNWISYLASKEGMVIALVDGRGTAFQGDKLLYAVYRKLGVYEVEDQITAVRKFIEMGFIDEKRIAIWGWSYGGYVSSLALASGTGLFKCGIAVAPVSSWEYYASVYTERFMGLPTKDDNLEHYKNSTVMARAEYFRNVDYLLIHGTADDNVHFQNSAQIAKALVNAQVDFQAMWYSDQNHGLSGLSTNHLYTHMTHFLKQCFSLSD
Method: (§1) Fluorescence was monitored with time at excitation and emission wavelengths of 360 and 460 nm using a black-sided, 96-well plate in a BIO-TEK FL600 fluorescence plate reader. For standard curves, dilutions of AMC (7-amino-4-methylcoumarin) were prepared in the same assay buffer and corresponding fluorescence was measured. The substrates in five different concentrations were mixed with four different concentrations of inhibitors around the expected Ki values; the enzyme was added and enzymatically released AMC fluorescence was recorded. […] Therefore, enzyme kinetic parameters were computed by fitting data to the following equation, employing the program PRISM, GraphPad: […]

[2] = molecular target: DPPIV (Homo sapiens, UniProt P27487); test: DPPIV enzyme assay with fluorescent AMC substrates, inhibition constants; assay type: biochemical
Sequence of DPPIV (P27487 whole entry, species assumed): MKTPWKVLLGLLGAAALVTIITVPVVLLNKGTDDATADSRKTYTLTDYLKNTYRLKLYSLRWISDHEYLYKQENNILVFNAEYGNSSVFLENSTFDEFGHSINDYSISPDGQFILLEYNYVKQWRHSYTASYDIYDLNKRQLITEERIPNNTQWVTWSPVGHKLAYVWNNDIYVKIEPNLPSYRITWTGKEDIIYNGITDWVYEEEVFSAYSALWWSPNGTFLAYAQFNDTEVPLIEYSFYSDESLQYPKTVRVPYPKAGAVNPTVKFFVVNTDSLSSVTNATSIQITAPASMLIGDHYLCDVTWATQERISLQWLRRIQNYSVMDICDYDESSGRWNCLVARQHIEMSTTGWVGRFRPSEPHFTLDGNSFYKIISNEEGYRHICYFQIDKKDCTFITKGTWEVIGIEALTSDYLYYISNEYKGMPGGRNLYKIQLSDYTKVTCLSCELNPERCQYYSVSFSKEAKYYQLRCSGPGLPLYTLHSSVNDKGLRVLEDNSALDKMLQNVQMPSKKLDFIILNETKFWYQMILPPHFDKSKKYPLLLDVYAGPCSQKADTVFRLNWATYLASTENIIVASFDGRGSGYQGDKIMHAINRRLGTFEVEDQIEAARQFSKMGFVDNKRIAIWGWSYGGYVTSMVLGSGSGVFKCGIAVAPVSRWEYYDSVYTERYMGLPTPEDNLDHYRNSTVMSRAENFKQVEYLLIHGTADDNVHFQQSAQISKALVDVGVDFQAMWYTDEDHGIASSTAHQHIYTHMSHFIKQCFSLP
Method: as §1

[3] = molecular target: T2, cell surface FAP of W138 fibroblast cells (Homo sapiens, UniProt Q12884); test: Cell surface FAP activity of fibroblasts (cleavage of Ac-Arg-peg-Gly-Pro-AMC); assay type: cell-based
T2 construct: FAP proteolytic activity expressed on the surface of living fibroblast cells; endogenous in cells; host or cells: W138 (WI-38) fibroblasts
T2 sequence (Q12884 1-760): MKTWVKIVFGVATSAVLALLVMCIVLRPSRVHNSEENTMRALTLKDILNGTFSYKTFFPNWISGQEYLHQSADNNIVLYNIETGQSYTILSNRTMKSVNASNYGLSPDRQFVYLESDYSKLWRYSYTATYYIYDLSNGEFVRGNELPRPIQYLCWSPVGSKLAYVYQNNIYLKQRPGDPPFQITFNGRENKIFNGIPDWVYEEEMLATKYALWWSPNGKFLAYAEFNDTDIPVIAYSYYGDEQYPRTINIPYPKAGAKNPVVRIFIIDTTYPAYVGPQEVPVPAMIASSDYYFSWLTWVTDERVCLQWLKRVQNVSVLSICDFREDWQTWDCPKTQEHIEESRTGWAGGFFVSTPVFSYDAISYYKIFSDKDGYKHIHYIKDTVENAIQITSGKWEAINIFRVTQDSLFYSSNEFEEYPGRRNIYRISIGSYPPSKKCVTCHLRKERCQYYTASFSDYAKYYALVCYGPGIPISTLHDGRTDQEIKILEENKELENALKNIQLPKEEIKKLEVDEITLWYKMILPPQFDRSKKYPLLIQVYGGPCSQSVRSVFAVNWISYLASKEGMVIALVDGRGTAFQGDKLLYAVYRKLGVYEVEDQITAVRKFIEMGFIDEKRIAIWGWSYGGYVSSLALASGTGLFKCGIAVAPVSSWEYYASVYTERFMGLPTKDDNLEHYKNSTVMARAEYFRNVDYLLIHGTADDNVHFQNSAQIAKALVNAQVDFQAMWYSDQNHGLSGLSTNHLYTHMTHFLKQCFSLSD
Method: FIG. 6 is a graph showing cell surface FAP activity of fibroblasts. W138 Cells were seeded into opaque black 96 well cell culture plates and grown to confluency. Cells were washed with Hanks Balanced Salt Solution after which either the inhibitor compound Ac-Arg-(8-amino-3,6-dioxaoctanoyl)-D-Ala-L-boroPro, or buffer, was added. The FAP substrate, Ac—R-peg-G-P-AMC, was added and fluorescence was measured with time. The inhibitor was added to one set of cells 2 hours after substrate addition (see arrow). O.D. 360/460 was converted to APCE Units using a standard curve.
FIG. 6, for example, illustrates that FAP proteolytic activity expressed on the surface of living fibroblast cells can readily be inhibited by the inhibitor Ac-Arg-peg-D-Ala-boroPro (a.k.a. M83). We measured FAP activity by use of a synthetic substrate, Ac-Arg-peg-Gly-Pro-amidomethyl coumarin, which produces fluorescence upon cleavage of the bond between proline and the amidomethylcoumarin by FAP. In these experiments we made a treatment and then measured any fluorescence generated over several hours. The figure compares three treatments: • (1) “Control”: This curve represents addition of the substrate to live cells bathed in culture media with no other treatment. The synthetic substrate cleavage is observed as reflected by measurement of the fluorescence generated that is expressed as APCE Units.

[4] = molecular target: T3, cell surface FAP of MDA-MB-435 breast cancer cells (Homo sapiens, UniProt Q12884); test: Cell surface FAP activity of breast cancer cells (cleavage of Ac-Arg-peg-Gly-Pro-AMC); assay type: cell-based; settings: live MDA-MB-435 breast cancer cells, inhibitor added with substrate
T3 construct: cultured breast cancer cells also have FAP activity on their cell surface; endogenous in cells; host or cells: MDA-MB-435 cells
T3 sequence (Q12884 1-760): T2 sequence (Q12884 1-760)
Method: FIG. 7 is a graph showing cell surface FAP activity of breast cancer cells. MDA-MB-435 cells were seeded into opaque black 96 well cell culture plates and grown to confluency. Cells were washed with Hanks Balanced Salt solution after which either the inhibitor compound Ac-Arg-(8-amino-3,6-dioxaoctanoyl)-D-Ala-L-boroPro, or buffer, was added. The FAP substrate, Ac—R-peg-G-P-AMC, was added and fluorescence measured with time. O.D. 360/460 was converted to APCE Units using a standard curve.
In FIG. 7, the experiment was performed in exactly the same way as for FIG. 6, except live breast cancer cells were used.

[5] = best-fit value ± standard error, read-out: Ki, inhibition of APCE activity

Molecule | Selectivity, Ki (DPPIV)/Ki (APCE/FAP) [1] | Ki ([1]; read-out: APCE/FAP Ki) [µM] | Ki [2] [µM] | Ki [1, 5] [µM] | other results
CC(=O)NC(CCCNC(=N)N)C(=O)NCCOCCOCC(=O)NCC(=O)N1CCCC1B(O)O (racemic) [Ac-Arg-peg-Gly-DL-boroPro] | 371 | 0.0031 | 1.15 |  | 
CC(=O)NC(CCCNC(=N)N)C(=O)NCCOCCOCC(=O)NC(C)C(=O)N1CCCC1B(O)O [Ac-Arg-peg-D-Ala-DL(50:50%)-boroPro] | 1176 | 0.0095 | 11.2 |  | 
CC(=O)NC(CCCNC(=N)N)C(=O)NCCOCCOCC(=O)NC(C)C(=O)N1CCCC1B(O)O (single isomer, unassigned) [Ac-Arg-peg-D-Ala-L-boroPro, acetyl-arg-8-amino-3,6-dioxaoctanoic acid-D-ala-L-boroPro] | 1075 | 0.0057 | 6.13 |  | Cell surface FAP activity (substrate hydrolysis, fluorescence as APCE Units) ([3]; 10 uM inhibitor added to fibroblasts 2 hrs after substrate, listed as Ac-Arg-(8-amino-3,6-dioxaoctanoyl)-D-Ala-L-boroPro): inhibited cell surface FAP immediately; Cell surface FAP activity (substrate hydrolysis, fluorescence as APCE Units) ([3]; 10 uM inhibitor added to fibroblasts 2 hrs after substrate, listed as M83): immediately and completely arrested; Cell surface FAP activity (substrate hydrolysis, fluorescence as APCE Units) ([3]; 10 uM inhibitor added to live fibroblasts simultaneously with substrate, followed 5 hours): no substrate hydrolysis occurs; Cell surface FAP activity (substrate hydrolysis, fluorescence as APCE Units) [4]: completely inhibited
Ac-Arg-peg-D-Ala-DL(25:75%)-boroPro |  | 0.0077 |  |  | 
CC(=O)NC(CCCNC(=N)N)C(=O)NCC(=O)NCC(=O)N1CCCC1B(O)O (racemic) [Ac-Arg-Gly-Gly-DL-boroPro] | 14.9 | 0.0229 | 0.341 |  | 
CC(=O)N[C@@H](CCCNC(=N)N)C(=O)NCCOCCOCC(=O)N[C@H](CC(=O)O)C(=O)N1CCC[C@H]1B(O)O [Ac-Arg-peg-D-Asp-L-boroPro] | 5.2 | 1.38 | 7.13 |  | 
N=C(N)NCCC[C@H](NC(=O)[C@@H](N)Cc1ccccc1)C(=O)NCCOCCOCC(=O)NCC(=O)N1CCCC[C@H]1C(N)=O [Inhibitor (11), FR-peg-G-pipecolinamide] (H-FR[AEEA]G[Pip]-NH2) |  |  |  | > 1000 | 
CC(=O)N[C@@H](CCCNC(=N)N)C(=O)NCC(=O)NCC(=O)N1CCC[C@H]1B(O)O [Ac-Arg-Gly-Gly-L-boroPro] | 18.7 | 0.0172 | 0.322 |  | 
CC(=O)NC(CCCNC(=N)N)C(=O)NCCOCCOCC(=O)NC(C)C(=O)N1CCCC1B(O)O (single isomer, unassigned) [Ac-Arg-peg-D-Ala-D-boroPro] | 108 |  |  |  | 
Ac-Arg-peg-D-Ala-DL(75:25%)-boroPro |  | 0.0183 |  |  | 

The next lines start with results.

Selectivity, Ki (DPPIV)/Ki (APCE/FAP) [1] | Ki ([1]; read-out: APCE/FAP Ki) [µM] | Ki [2] [µM] | Ki [1, 5] [µM] | Molecule | other results
244 | 0.0018 | 0.44 |  | CC(=O)N[C@@H](CCCNC(=N)N)C(=O)NCCOCCOCC(=O)NCC(=O)N1CCC[C@H]1B(O)O [Ac-Arg-peg-Gly-L-boroPro] | 
 |  |  | 67.7 ± 5.8 | FR-peg-G-pyrrolidide [Inhibitor (5)] | 
 |  |  | 53.8 ± 4.9 | FR-peg-G-[r]fluoropyrrolidide [Inhibitor (8)] | 
 |  |  | 55.3 ± 5.3 | FR-peg-G-[s]fluoropyrrolidide [Inhibitor (9)] | 
 |  |  | 703 ± 68 | FG-peg-G-pyrrolidide [Inhibitor (6)] | 
319 |  |  |  | CC(=O)N[C@@H](CCCNC(=N)N)C(=O)NCCOCCOCC(=O)N[C@@H](CO)C(=O)NCC(=O)N1CCC[C@H]1B(O)O [Ac-Arg-peg-Ser-Gly-L-boroPro] | 
